Data set [1] in a line: Drug uptake in Harlan nu/nu mouse brain at 240 mg/kg, po administered per day for 2 weeks measured 6 hrs post last dose by LC-MS/MS analysis. Type of data set: ADME, organism-based. Particulars: read-out: Drug uptake.
Data set [2] in a line: Tmax in Sprague-Dawley rat at 10 mg/kg, po administered as single dose by LC-MS/MS analysis. The class given is ADME, organism-based. Particulars: in vivo.
Data set [3] addresses Vascular endothelial growth factor receptor 2 (Homo sapiens, UniProt P35968). Put plainly: Inhibition of VEGFR2 (unknown origin) in presence of gamma33-ATP.
Data set [4] in a line: Clearance in Sprague-Dawley rat at 10 mg/kg, iv administered as single dose by LC-MS/MS analysis. Type of data set: ADME, organism-based. Particulars: in vivo.
Data set [5] is described as follows: Antiproliferative activity against human SR786 cells expressing ALK protein incubated for 72 hrs by cell titer-glo assay. Type of data set: functional, cell-based. Particulars: SR-786, 72 h.
The nature of data set [6]: Half life in Sprague-Dawley rat at 10 mg/kg, po administered as single dose by LC-MS/MS analysis. Particulars: in vivo. Type of data set: ADME, organism-based.
Data set [7] deals with Serine/threonine-protein kinase Nek6 (Homo sapiens, UniProt Q9HC98). Nature of the data set: Inhibition of NEK6 (unknown origin) in presence of gamma33-ATP.
Data set [8] has as its target T1, Eukaryotic elongation factor 2 kinase (Homo sapiens, UniProt O00418).
T1 sequence (O00418 whole entry): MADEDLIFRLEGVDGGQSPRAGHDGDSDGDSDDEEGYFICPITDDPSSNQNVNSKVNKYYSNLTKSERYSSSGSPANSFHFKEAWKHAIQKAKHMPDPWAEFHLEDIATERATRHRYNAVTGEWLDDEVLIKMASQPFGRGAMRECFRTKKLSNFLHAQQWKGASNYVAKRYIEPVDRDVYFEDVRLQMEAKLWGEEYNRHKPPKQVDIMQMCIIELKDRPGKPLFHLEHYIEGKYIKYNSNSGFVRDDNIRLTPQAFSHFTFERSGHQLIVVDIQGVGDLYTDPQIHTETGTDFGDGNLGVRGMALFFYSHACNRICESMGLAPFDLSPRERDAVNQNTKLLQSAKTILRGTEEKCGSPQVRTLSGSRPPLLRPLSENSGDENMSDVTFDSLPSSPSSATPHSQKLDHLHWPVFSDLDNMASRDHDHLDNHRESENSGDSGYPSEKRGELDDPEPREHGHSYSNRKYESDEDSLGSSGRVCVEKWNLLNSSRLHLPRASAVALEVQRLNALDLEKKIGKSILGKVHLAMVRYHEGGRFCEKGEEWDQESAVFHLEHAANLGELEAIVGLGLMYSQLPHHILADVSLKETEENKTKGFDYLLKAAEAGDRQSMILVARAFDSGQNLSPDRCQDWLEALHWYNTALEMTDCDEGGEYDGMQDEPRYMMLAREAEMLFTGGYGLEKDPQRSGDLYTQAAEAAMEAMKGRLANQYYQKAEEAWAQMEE
Nature of the data set: Inhibition of EEF2K (unknown origin) in presence of gamma33-ATP.

The next data set has as its system KARPAS-299. Particulars: Homo sapiens.
A short description of data set [9]: Cmax in Sprague-Dawley rat at 10 mg/kg, iv administered as single dose by LC-MS/MS analysis. The class given is ADME, organism-based. Particulars: in vivo. The arrangement: dose 10 mg/kg, route intravenous.
A short description of data set [10]: Tmax in Beagle dog at 10 mg/kg, po administered as single dose by LC-MS/MS analysis. Particulars: in vivo. The class given is ADME, organism-based, Canis lupus familiaris.
Data set [11] is described as follows: Intrinsic clearance in rat hepatocytes at […] after 10 to 90 mins by LC-MS/MS analysis. The class given is ADME, cell-based, Hepatocyte. Particulars: read-out: CLH.
Data set [12] is described as follows: Cmax in Sprague-Dawley rat at 10 mg/kg, po administered as single dose by LC-MS/MS analysis. The class given is ADME, organism-based. The arrangement: dose 10 mg/kg, route oral. Particulars: in vivo.
The nature of data set [13]: Cytotoxicity against mouse IL-3 dependent BA/F3 cells incubated for 72 hrs by cell titer-glo assay. Particulars: BaF3, 72 h. Type of data set: cell-based. On the technique in general: Cellular ATP, detected with luciferase, serves as a proxy for viable cell number.
Data set [14] has as its target T2, Inhibitor of nuclear factor kappa-B kinase subunit beta (Homo sapiens, UniProt O14920).
T2 sequence (O14920 whole entry): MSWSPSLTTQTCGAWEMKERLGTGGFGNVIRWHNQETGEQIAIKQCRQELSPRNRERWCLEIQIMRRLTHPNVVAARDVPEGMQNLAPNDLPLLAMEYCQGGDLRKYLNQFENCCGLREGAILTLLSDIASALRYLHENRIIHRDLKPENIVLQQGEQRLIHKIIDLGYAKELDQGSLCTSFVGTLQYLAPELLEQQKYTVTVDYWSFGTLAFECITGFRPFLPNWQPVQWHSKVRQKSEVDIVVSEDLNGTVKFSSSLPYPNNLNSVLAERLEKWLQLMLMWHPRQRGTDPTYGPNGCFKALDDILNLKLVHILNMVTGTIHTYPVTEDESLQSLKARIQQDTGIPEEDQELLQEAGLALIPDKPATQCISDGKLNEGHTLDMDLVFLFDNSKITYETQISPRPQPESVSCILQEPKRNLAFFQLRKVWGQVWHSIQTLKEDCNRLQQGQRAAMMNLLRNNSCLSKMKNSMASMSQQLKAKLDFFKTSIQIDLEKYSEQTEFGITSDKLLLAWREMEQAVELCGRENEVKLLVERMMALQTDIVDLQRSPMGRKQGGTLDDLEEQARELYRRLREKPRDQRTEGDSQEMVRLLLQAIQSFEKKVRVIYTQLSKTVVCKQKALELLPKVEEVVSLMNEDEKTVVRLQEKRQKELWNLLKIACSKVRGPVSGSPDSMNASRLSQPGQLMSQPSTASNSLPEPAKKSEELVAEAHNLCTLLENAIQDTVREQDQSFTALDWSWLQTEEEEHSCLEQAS
Put plainly: Inhibition of IKK2 (unknown origin) in presence of gamma33-ATP.

Activity calls are given as the source filed them. Bounds are passed on as bounds.

Vascular endothelial growth factor receptor 2, sequence (P35968 whole entry): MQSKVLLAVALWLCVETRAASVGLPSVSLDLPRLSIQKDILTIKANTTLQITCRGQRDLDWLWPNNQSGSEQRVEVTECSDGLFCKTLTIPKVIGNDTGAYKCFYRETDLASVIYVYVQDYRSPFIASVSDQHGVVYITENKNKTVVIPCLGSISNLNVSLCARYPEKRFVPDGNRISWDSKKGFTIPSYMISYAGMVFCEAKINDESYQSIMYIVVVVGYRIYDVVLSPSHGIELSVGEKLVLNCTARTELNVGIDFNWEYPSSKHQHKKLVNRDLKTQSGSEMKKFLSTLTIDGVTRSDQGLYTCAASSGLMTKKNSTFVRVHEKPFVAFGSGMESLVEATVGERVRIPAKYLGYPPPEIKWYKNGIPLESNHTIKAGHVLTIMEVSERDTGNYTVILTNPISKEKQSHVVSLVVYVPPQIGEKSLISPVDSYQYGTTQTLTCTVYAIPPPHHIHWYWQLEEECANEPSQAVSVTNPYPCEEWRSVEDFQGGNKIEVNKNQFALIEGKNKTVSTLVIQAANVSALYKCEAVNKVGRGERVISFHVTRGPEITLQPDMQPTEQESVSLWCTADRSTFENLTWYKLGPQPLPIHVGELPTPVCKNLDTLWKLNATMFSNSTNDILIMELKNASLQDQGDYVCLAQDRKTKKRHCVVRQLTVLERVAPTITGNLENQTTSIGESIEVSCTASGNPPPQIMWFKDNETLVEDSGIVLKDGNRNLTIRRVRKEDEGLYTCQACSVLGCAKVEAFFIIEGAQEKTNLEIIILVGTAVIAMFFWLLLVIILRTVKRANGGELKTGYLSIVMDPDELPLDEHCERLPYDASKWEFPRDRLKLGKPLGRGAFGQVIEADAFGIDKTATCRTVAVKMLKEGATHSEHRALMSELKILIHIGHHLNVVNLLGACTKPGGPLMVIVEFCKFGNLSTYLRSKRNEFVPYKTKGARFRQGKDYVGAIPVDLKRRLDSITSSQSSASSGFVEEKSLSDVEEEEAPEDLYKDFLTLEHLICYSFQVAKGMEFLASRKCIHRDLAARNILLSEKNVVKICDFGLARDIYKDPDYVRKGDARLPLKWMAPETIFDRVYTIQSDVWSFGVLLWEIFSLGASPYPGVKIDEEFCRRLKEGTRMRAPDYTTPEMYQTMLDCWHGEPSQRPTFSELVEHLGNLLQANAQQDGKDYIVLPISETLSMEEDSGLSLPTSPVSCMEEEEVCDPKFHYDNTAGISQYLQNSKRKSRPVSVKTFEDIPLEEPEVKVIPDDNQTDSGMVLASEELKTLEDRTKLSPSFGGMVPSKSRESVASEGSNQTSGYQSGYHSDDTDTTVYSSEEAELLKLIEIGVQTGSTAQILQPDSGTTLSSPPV
Serine/threonine-protein kinase Nek6, sequence (Q9HC98 whole entry): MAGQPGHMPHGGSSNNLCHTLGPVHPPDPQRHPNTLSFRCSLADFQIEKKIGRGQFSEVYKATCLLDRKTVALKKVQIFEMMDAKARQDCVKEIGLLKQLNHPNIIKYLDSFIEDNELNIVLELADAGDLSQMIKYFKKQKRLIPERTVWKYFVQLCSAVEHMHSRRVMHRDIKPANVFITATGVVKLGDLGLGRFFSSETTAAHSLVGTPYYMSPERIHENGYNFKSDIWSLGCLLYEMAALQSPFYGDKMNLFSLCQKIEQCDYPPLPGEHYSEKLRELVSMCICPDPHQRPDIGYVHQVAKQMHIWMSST
Description for KARPAS-299: Antitumor activity against human KARPAS299 cells xenografted in SCID mouse assessed as tumor growth inhibition at 30 to 60 mg/kg, po bid administered for 10 days

The term Tmax denotes the time from dosing to the highest level. For orientation: IC50 means the concentration that inhibits the measured activity by half. A word on the clearance: it is the volume of plasma or blood freed of the substance per unit of time. Low values mean inefficient removal, high ones efficient removal. In general, half-life refers to the time needed for the level to fall by half in the phase considered. The low end stands for fast loss, the high end for slow loss. Broadly, the Cmax is the highest concentration seen after dosing. In the case of `CN1CCN(c2ccc(C(=O)Nc3n[nH]c4ccc(Cc5cc(F)cc(F)c5)cc34)c(NC3CCOCC3)c2)CC1` [ENTRECTINIB], the concentration at 6 h in data set [1] was determined as 1940 nM. Moreover, the results for the Tmax in [2] and in data set [10] were 3.08 h and 2 h, respectively. Besides, the IC50 in data set [3] is greater than 1000 nM; in data set [5] it was 81 nM; in data set [7], greater than 10 µM; in [8] it was greater than 10 µM; in [13], 2100 nM; in [14] it was greater than 10 µM. Further, the clearance in data set [4] was found to be 20.8 mL/min/kg. In addition, the half-life in data set [6] was 228 min. Further, the TGI entry in the data set on KARPAS-299 is “Active”. For the same molecule, the Cmax turned out to be 11 µM in data set [9] and 500 nM in data set [12]. Also, in data set [11], the CLint scaled is 87 mL/min/kg.

For the origin of these results see ChEMBL document CHEMBL3804811 (J Med Chem, 2016).
